Legend:
[1] = test system: Bacillus licheniformis (NBRC 12200); assay: Germination induction, change of turbidity (630 nm) of spore suspension; assay type: cell-based; conditions: 300 ppm; for turbidity (630 nm): 37° C., 150 rpm; for germination confirmed by turbidity decrease: up to 180 min
Procedure: (§1) It is possible to determine whether spores have germinated, after measuring an OD 630 value (turbidity at 630 nm) of the liquid culture, based on decrease in the value (Literature: Microbiology, (1950), 4, 3, 330-338). Briefly, bacterial cells after culturing are washed with distilled water and diluted with distilled water to OD 630=1.0, which is then mixed with an equal volume of a germination induction solution, and the turbidity at 630 nm is measured by a UV spectrophotometer at room temperature.
(§2) TS culture media (Difco, Trypticase Soy Broth) were inoculated respectively with 11 strains listed in Table 1 and cultured at 50° C. with respect to Geobacillus stearothermophilus NBRC13737 and Aeribacillus pallidus TK6004 (FERM BP-08597), and at 37° C. with respect to the other 9 strains, until respective colonies were established. Then with respect to each of 11 strains, a loop full of a single colony was scratched by a platinum loop and suspended in 500 μL of sterilized water. In 1000 g of water was dissolved 8.0 g of a nutrient agar culture medium (Difco, Nutrient Broth), followed by high pressure steam sterilization (121° C., 15 min) to prepare a plate medium. The nutrient agar culture medium was smeared with each 100 μL of the suspension and cultured at 37° C. for 3 days.
(§3) Then, bacterial cells were suspended using a platinum loop in 500 μL of sterilized water, and the bacterial suspension was subjected to a heat shock at 65° C. for 35 min. Each 100 μL of the heat-shocked bacterial suspension and a not-heat-shocked bacterial suspension were smeared on the TS culture media respectively and cultured at 50° C. or 37° C. for 1 day.
(§4) After confirming the spore formation, the bacterial cells were collected by a bacteria spreader, suspended in 10 mL of sterilized distilled water, and then centrifuged (8340×g, 4° C., 15 min). The supernatant was removed and thereafter the bacterial cells were washed twice with 10 mL of sterilized water. After washing, the bacterial cells were suspended in 5 mL of sterilized water, and the suspension was filtrated by sterilized Kimwipes. The filtrate was centrifuged (8340×g, 4° C., 15 min) to remove the supernatant, and the rest was adjusted to the turbidity (at 630 nm) of 1.0 with sterilized water.
(§5) After dissolving with stirring using a stirring rod with a propeller, filtration sterilization (0.45 μm filter) was conducted to prepare each 600 ppm-solution.
(§6) Five hundred (500) μL of each solution and 500 μL of each bacterial spore suspension were mixed. […] Defining the time point of mixing as the reaction initiation (0 min), and continuing shaking (150 rpm) at 37° C., the turbidity (630 nm) was measured at 10, 20, 30, 40, 50, 60, 90, 120, and 180 min after the reaction initiation.
(§7) Since the turbidity at 630 nm decreases by germination of spores, it has been known that the turbidity at 630 nm can be used to determine the germination rate.

[2] = test system: Bacillus licheniformis (NBRC 14206); assay: as above; assay type: cell-based; conditions: 300 ppm; for turbidity (630 nm): 37° C., 150 rpm; for germination confirmed by turbidity decrease: up to 180 min
Procedure: as §1, §2, §3, §4, §5, §6, §7

[3] = test system: C-3102 strain; assay: Long time culture of spore suspension with inducer, turbidity up to 24 hours (proliferation check, Example 4); assay type: cell-based, Bacillus subtilis; conditions: 500 μL spore suspension + 500 μL of 600 ppm solution
Procedure: This Example is an experiment to examine whether proliferation is recognizable or not, when ferulic acid or vanillic acid is mixed with a spore suspension of the C-3102 strain and cultured for a long time period.
The C-3102 strain was cultured on a nutrient plate at 37° C. for 3 days, and thereafter bacterial cells were collected by a bacteria spreader and a spore suspension was prepared similarly as in Example 1 (OD 630=1.0). After mixing 500 μL of the C-3102 spore suspension with 500 μL of a 600 ppm-ferulic acid solution, or a 600 ppm-vanillic acid solution, change in the turbidity (630 nm) up to 24 hours was examined.

[4] = 0 min after reaction initiation
[5] = 10 min after reaction initiation
[6] = 20 min after reaction initiation
[7] = 30 min after reaction initiation
[8] = 40 min after reaction initiation
[9] = 50 min after reaction initiation
[10] = 60 min after reaction initiation
[11] = 90 min after reaction initiation
[12] = 120 min after reaction initiation
[13] = 180 min after reaction initiation

Row | Compound | turbidity (630 nm) [1, 4] | turbidity (630 nm) [1, 5] | turbidity (630 nm) [1, 6] | turbidity (630 nm) [1, 7] | turbidity (630 nm) [1, 8] | turbidity (630 nm) [1, 9] | turbidity (630 nm) [1, 10] | turbidity (630 nm) [1, 11] | turbidity (630 nm) [1, 12] | turbidity (630 nm) [1, 13] | germination confirmed by turbidity decrease [1] | turbidity (630 nm) [2, 4] | turbidity (630 nm) [2, 5] | turbidity (630 nm) [2, 6] | turbidity (630 nm) [2, 7] | turbidity (630 nm) [2, 8] | turbidity (630 nm) [2, 9] | turbidity (630 nm) [2, 10] | turbidity (630 nm) [2, 11] | turbidity (630 nm) [2, 12] | other results
1 | COc1cc(/C=C/C(=O)O)ccc1O [Ferulic acid, ferulic acid] | 0.601 | 0.569 | 0.563 | 0.543 | 0.536 | 0.517 | 0.503 | 0.460 | 0.417 | 0.334 | the turbidity decreased | 0.589 | 0.583 | 0.573 | 0.565 | 0.553 | 0.547 | 0.530 | 0.498 | 0.474 | turbidity (630 nm) [2, 13]: 0.463; germination confirmed by turbidity decrease [2]: the turbidity decreased; turbidity (630 nm) ([3]; reaction time 0 hr): 0.574; turbidity (630 nm) ([3]; reaction time 0.5 hr): 0.543; turbidity (630 nm) ([3]; reaction time 1 hr): 0.502; turbidity (630 nm) ([3]; reaction time 1.5 hr): 0.464; turbidity (630 nm) ([3]; reaction time 2 hr): 0.425; turbidity (630 nm) ([3]; reaction time 3 hr): 0.370; turbidity (630 nm) ([3]; reaction time 24 hr): 0.178
2 | COc1cc(C(=O)O)ccc1O [Vanillic acid, vanillic acid] | 0.602 | 0.574 | 0.567 | 0.542 | 0.523 | 0.488 | 0.464 | 0.414 | 0.362 | 0.267 | the turbidity decreased | 0.583 | 0.573 | 0.563 | 0.553 | 0.537 | 0.526 | 0.503 | 0.470 | 0.453 | turbidity (630 nm) [2, 13]: 0.414; germination confirmed by turbidity decrease [2]: the turbidity decreased; turbidity (630 nm) ([3]; reaction time 0 hr): 0.575; turbidity (630 nm) ([3]; reaction time 0.5 hr): 0.540; turbidity (630 nm) ([3]; reaction time 1 hr): 0.481; turbidity (630 nm) ([3]; reaction time 1.5 hr): 0.426; turbidity (630 nm) ([3]; reaction time 2 hr): 0.380; turbidity (630 nm) ([3]; reaction time 3 hr): 0.316; turbidity (630 nm) ([3]; reaction time 24 hr): 0.060

From patent US20140308733A1, “METHOD FOR INDUCING GERMINATION OF SPORE FORMING BACTERIUM” (CALPIS CO., LTD., priority 2011, published 2014)
